According to BindingDB's records for doi:10.1021/cb300671s (National Cancer Institute-Bethesda, 2013):

Tests used:
[1] = molecular target: T1, Protein kinase C epsilon type (Homo sapiens, UniProt Q02156)
T1 sequence (Q02156 whole entry): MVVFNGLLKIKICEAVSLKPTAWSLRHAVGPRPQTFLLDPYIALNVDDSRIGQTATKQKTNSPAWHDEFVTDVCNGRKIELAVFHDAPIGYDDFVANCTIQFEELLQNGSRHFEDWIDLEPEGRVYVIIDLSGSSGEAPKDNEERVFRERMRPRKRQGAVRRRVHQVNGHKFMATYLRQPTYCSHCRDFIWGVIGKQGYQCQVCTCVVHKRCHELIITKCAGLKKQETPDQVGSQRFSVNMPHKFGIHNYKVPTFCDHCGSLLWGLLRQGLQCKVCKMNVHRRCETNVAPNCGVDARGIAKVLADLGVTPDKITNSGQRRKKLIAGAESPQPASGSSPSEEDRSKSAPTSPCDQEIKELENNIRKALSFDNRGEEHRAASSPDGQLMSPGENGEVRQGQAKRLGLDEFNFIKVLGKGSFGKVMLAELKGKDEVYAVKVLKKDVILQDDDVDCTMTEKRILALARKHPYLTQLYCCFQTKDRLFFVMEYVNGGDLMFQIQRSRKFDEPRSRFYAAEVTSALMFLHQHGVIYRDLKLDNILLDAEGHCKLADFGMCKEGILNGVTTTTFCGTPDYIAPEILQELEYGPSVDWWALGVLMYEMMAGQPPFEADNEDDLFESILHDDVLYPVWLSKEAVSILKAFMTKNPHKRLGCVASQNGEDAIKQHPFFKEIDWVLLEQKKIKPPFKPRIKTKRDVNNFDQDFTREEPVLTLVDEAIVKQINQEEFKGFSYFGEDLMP

[2] = molecular target: Protein kinase C alpha type (Homo sapiens, UniProt P17252)
[3] = molecular target: Protein kinase C beta type (Homo sapiens, UniProt P05771)
Chain of Protein kinase C beta type (P05771 whole entry): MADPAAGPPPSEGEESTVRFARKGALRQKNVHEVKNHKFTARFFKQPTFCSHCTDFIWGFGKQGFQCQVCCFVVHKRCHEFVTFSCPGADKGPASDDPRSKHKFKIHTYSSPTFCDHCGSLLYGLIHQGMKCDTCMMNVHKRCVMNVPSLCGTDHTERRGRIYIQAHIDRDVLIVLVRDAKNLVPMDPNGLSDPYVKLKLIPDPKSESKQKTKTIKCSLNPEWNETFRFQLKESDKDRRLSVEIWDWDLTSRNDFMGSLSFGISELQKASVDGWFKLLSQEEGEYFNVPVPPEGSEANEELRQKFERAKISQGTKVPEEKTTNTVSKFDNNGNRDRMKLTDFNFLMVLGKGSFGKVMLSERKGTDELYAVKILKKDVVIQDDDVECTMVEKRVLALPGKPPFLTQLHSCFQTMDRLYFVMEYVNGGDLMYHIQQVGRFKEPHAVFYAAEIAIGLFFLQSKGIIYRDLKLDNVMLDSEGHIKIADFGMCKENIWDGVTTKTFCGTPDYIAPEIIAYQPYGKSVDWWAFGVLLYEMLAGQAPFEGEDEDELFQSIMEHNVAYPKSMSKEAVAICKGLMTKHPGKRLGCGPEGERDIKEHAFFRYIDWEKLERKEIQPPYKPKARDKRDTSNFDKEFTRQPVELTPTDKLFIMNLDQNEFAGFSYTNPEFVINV

Protein kinase C = Protein kinase C (Mus musculus, UniProt Q4VA93)
[4] = molecular target: Protein kinase C delta type (Homo sapiens, UniProt Q05655)
Chain of Protein kinase C delta type (Q05655 whole entry): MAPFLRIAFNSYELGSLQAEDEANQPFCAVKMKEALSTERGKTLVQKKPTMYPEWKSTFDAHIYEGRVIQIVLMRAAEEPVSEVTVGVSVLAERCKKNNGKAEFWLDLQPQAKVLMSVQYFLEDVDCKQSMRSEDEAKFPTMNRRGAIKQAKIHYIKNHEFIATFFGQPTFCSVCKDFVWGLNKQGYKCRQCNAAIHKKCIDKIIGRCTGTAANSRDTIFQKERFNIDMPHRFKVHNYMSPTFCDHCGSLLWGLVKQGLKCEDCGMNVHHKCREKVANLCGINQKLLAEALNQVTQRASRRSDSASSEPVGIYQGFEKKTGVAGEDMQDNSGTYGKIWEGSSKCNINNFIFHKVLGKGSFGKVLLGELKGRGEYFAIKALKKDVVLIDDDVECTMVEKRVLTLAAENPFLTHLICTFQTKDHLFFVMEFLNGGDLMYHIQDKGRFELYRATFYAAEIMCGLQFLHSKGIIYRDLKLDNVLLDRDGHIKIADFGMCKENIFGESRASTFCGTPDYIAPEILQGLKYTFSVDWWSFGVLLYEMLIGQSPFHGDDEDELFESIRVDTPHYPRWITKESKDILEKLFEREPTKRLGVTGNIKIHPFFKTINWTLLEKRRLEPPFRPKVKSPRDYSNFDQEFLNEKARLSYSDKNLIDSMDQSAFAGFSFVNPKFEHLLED

| Structure (SMILES) | Kd [1] | Kd [2] | Kd [3] | Kd (Protein kinase C) | Kd [4] |
| --- | --- | --- | --- | --- | --- |
| CCC/C=C/C=C/C(=O)O[C@H]1/C(=C/C(=O)OC)C[C@H]2C[C@H]([C@@H](C)O)OC(=O)C[C@H](O)C[C@@H]3C[C@H](OC(C)=O)C(C)(C)[C@](O)(C[C@@H]4C/C(=C/C(=O)OC)C[C@H](/C=C/C(C)(C)[C@]1(O)O2)O4)O3 | 0.24 nM | 0.73 nM | 0.42 nM | 0.48 nM | – |
| COC(=O)/C=C1/C[C@H]2C[C@]3(O)O[C@H](C[C@@H](O)CC(=O)O[C@@H]([C@@H](C)O)C[C@@H]4C/C(=C\C(=O)OC)[C@H](OC(C)=O)[C@@](O)(O4)C(C)(C)/C=C/[C@@H](C1)O2)C[C@H](OC(C)=O)C3(C)C [Bryostatin] | 0.16 nM | 0.44 nM | 0.32 nM | 0.26 nM | 0.21 nM |
| CCCC(=O)O[C@@H]1[C@@H](C)[C@@]2(O)[C@@H](C=C(CO)C[C@@]3(O)C(=O)C(C)=C[C@@H]23)[C@H]2C(C)(C)[C@]12OC(=O)CCC [Butyric acid (1aS,1bS,4aS,7aS,8R,9S,9aR)-9-butyryloxy-4a,7b-dihydroxy-3-((R)-hydroxymethyl)-1,1,6,8-tetramethyl-5-oxo-1,1a,1b,4,4a,5,7a,7b,8,9-decahydro-cyclopropa[3,4]benzo[1,2-e]azulen-9a-yl ester] | – | – | – | 0.3 nM | – |
